Source: US9777014B2, “Tetrahydro-2H-pyrano[3,2-C]isochromene-6-ones and analogs for the treatment of inflammatory disorders” (Council of Scientific & Industrial Research, priority 2013, dated 2017)
Entries after “also recorded” stand apart in the source; their conditions may differ.

Assays:
TNF-α [1] = assay: TNF-α in serum, in-vivo LPS-induced model; set-up: species or system Balb/c mice; conditions: for TNF-α in serum: in-vivo LPS-induced model; for activity against TNF-α in in-vivo LPS model compared with bergenin (1): Table 3, serum
From the text: (§1) Macrophages are the main source of cytokines in inflammation. Lipopolysaccharides LPS may stimulate macrophages to produce large quantities of proinflammatory cytokines that promote inflammation. In this study, we investigated the effect of compounds 1-3 on the expression and secretion of cytokines (TNF-α/IL-6) in vivo in cell supernatant and serum. For this study, male Balb/c mice (5-6 weeks of age) were maintained under pathogen-free conditions in an animal housing unit in a temperature-controlled (23±2° C.) and light-controlled (12 h light/dark cycle) room. Animals were provided standard rodent chow and water ad libitum. Female Balb/C mice (8-10 weeks) were obtained from animal house, 3 or 4 per cage with a 12 h light/dark cycle, provided standard water ad libitum, and acclimated to their environment at least a week before the start of experiments. One hour prior to the start of each experiment, feed and water were removed from the cages. Mice were treated with 10 mg/kg and 100 mg/kg of compounds 1-3 orally over a period of 5 days. LPS 10 μg/ml was injected and blood as well macrophages were collected. The dose was selected based on in vitro result.
(§2) Measurement of in vivo serum levels of TNF-α and IL-6: The mice were divided into 4 groups: no treatment group, injected with phosphate buffered saline (PBS); LPS only; LPS+Dexamethasone (0.05 μg/ml); or LPS+compound 1 at 10 and 100 μM doses (n=6 for each group). Groups were pretreated orally with 200 μl of PBS, dexamethasone or compounds 1, 2, 3 for 45 min. Lipopolysaccharide (100 nM) was then administered (200 μL) i.p for treatment groups, and RPMI was administered i.p for the negative control group.
(§3) Ex vivo TNF-α and IL-6 determination by ELISA: Blood was allowed to clot overnight at 4° C. Serum was analyzed for IL-6, TNF-α, and IL-1β by ELISA. IL-6 analysis was performed using purified and biotin-conjugated rat anti-mouse IL-6 antibodies from PharMingen (San Diego, Calif.) as described previously. Streptavidin—peroxidase (Sigma) and 3,3′,5,5′-tetramethylbenzidine (TMB, Fluka, Ronkonkoma, N.Y.) were used for detection. Absorbance was read at 450 nm using a Vmax™ Kinetic Microplate Reader (Molecular Devices, Menlo Park, Calif.). For TNF-α analysis the OptEIA Set: Mouse TNF-α (Mono/Poly) kit was employed (PharMingen) (J. Immunol. Methods 1983, 65, 55-63).

IL-6 [2] = assay: IL-6 in cell supernatant of macrophages, ex vivo LPS-induced model; set-up: species or system Balb/c mice
From the text: as §1
(§4) Ex vivo determination of TNF-α, IL-6 & IL-1β in cell supernatant: Blood for serum cytokines production was collected from each treated and untreated animals before the collection of macrophages from peritoneal cavity. Cells were seeded in 96-well plates at 5×10^5 cells mL^−1. Cells were then stimulated with 1 μg mL^−1 LPS for 4 hrs. The cell supernatant was stored at −80° C. The production of TNF-α, IL-6, IL-1β and NO in macrophages cell supernatants of LPS-challenged mice were measured by commercial ELISA kits (B. D. Pharmingenin; R&D systems, Inc., Minneapolis, Minn., USA) and cytokine concentration was determined (J. Am. College Nutr. 2004, 23, 71-78).

TNF-α [3] = assay: TNF-α in cell supernatant of macrophages, ex vivo LPS-induced model; set-up: species or system Balb/c mice
From the text: as §1, §4

IL-1β = IL-1β production in stimulated splenocytes; assay type: cell-based; conditions: at low micromolar to nanomolar concentrations
IL-6 [4] = assay: IL-6 production in Con A/LPS stimulated splenocytes (ELISA); assay type: cell-based; conditions: for IC50: Splenocyte, splenocytes, Con A or LPS, 72 h, ELISA; for inhibition of IL-6 production (in words): at low micromolar to nanomolar concentrations
Protocol: (§5) Splenocytes were seeded into three to four wells of a 96-well flat-bottom microtiter plate (Nunc) at 2×10^6 cells/ml. Cells were incubated with different concentrations of compounds (0.1 μM-100 μM) along with Con A (2.5 μg/well) or LPS (1 μg/ml) for 72 h at 37° C. with 5% CO2 in CO2 incubator. The culture supernatants were harvested and the measurement of cytokines (TNF-α and IL-6) in the culture supernatants was carried out using commercial kits as per manufacturer's instructions by using ELISA kits (R&D, USA) (Life Sci. 2007, 80, 1525-1538; J. Immunol. Methods 1983, 65, 55-63).

nitric oxide (NO) = assay: Nitric oxide (NO) in serum, in-vivo LPS-induced model (Griess assay); set-up: species or system Balb/c mice
From the text: as §1, §2
NO determination by Griess assay: NO production was indirectly assessed by measuring the nitrite level in the cultured media and serum determined by a colorimetric method based on the griess reaction. The cells were incubated with cinnamic aldehyde, cinnamic alcohol, cinnamic acid, coumarin (0, 6.25, 12.5, 25, and 50 μM) in presence of LPS (100 ng/mL) at 37° C. for 24 h. Then, cells were dispensed into 96-well plates, and […] of each supernatant was mixed with the same volume of griess reagent (1% sulfanilamide, 0.1% naphthyl ethylenediamine dihydrochloride and 5% phosphoric acid) and incubated at room temperature for 10 min., the absorbance was measured at 540 nm with a Micro-Reader (Molecular Devices, Orleans Drive, Sunnyvale, Calif.). Serum samples were diluted four times with distilled water and deproteinized by adding 1/20 volume of zinc sulphate (300 g/L) to final concentration of 15 g/L. After centrifugation at 10,000×g for 5 min at room temperature, 100 μL supernatant was applied to a microtitre plate well, followed by 100 μL of Griess reagent. After 10 min of color development at room temperature, the absorbance was measured at 540 nm with a Micro-Reader. By using sodium nitrite to generatea standard curve, the concentration of nitrite was measured by absorbance at 540 nm (J. Ethnopharmacology, 2011, 135, 545-552).

IL-6 [5] = assay: IL-6 in serum, in-vivo LPS-induced model; set-up: species or system Balb/c mice
From the text: as §1, §2, §3

IL-4 = IL-4 production in stimulated splenocytes; assay type: cell-based; conditions: at low micromolar to nanomolar concentrations
T-cell = assay: Effect on T-cell proliferation (Con-A stimulated spleen cells, MTT); assay type: cell-based; conditions: for inhibition of T-cell proliferation (in words): 0.1 μM-100 μM tested; for IC50: T-cell, Con-A stimulated spleen cells, 72 hrs, MTT
Protocol: Compounds provided in present invention were evaluated for their effect on T-cell proliferation. The protocol used for this bioassay is as follows: A single spleen cell suspension was prepared under sterile conditions and suspended in complete medium RPMI 1640 containing 10% Fetal calf serum (FCS). Spleenocytes were seeded into 4-5 wells of a 96-well flat bottom microtitre plate (Nunc) at (2×10^6 cells/ml). Thereafter, Concanavalin (Con-A) in the final concentration of 2.5 μg/well was added to stimulate T-cell, or LPS in the final concentration of 1 μg/ml was added to stimulate B-cell in the respective wells. Variable concentrations of compounds of the present invention (0.1 μM-100 μM) were added. Thereafter, the plates were incubated at 37° C. in 95% humidity at 5% CO2 in a CO2 incubator for 72 hrs. After 72 hours, 50 μl of MTT solution (5 mg/ml) was added to each well and the plates were incubated for 4 h. Thereafter, plates were centrifuged (400×g, 5 min.) and the untransformed MTT was removed. 200 μl of DMSO (192 μl with 8 μl 1N HCl) was added to each well, and the absorbance was determined in an ELISA reader at 570 nm after 15 min (Life Sci. 2007, 80, 1525-1538).

TNF-α [6] = assay: TNF-α production in Con A/LPS stimulated splenocytes (ELISA); assay type: cell-based; conditions: for IC50: Splenocyte, splenocytes, Con A or LPS, 72 h, ELISA; for inhibition of TNF-α production (in words): at low micromolar to nanomolar concentrations
Protocol: as §5

IC50 (IL-6 [4])	IC50 (TNF-α [6])	Compound	TNF-α in serum (TNF-α [1]; Dose 10 (μM as printed))	TNF-α in serum (TNF-α [1]; Dose 100 (μM as printed))	activity against TNF-α in in-vivo LPS model compared with bergenin (1) (TNF-α [1])	IL-6 in cell supernatant of macrophages (IL-6 [2]; Dose 10 (μM as printed))	IL-6 in cell supernatant of macrophages (IL-6 [2]; Dose 100 (μM as printed))	TNF-α in cell supernatant of macrophages (TNF-α [3]; Dose 10 (μM as printed))	TNF-α in cell supernatant of macrophages (TNF-α [3]; Dose 100 (μM as printed))	inhibition of IL-1β production (in words) (IL-1β)	inhibition of IL-6 production (in words) (IL-6 [4])	NO in serum (nitric oxide (NO); Dose 10 (μM as printed))	NO in serum (nitric oxide (NO); Dose 100 (μM as printed))	IL-6 in serum (IL-6 [5]; Dose 10 (μM as printed))	IL-6 in serum (IL-6 [5]; Dose 100 (μM as printed))	inhibition of IL-4 production (in words) (IL-4)	inhibition of T-cell proliferation (in words) (T-cell)	IC50 (T-cell)	inhibition of TNF-α production (in words) (TNF-α [6])	further results
< 0.1 µM	< 0.1 µM	COc1c(O)c(CN2CCN(C)CC2)c2c(c1O)C1OC(CO)C(O)C(O)C1OC2=O (centres unmarked) [Compound 3, 2,3,4,4a-Tetrahydro-3,4,8,10-tetrahydroxy-2-(hydroxymethyl)-9-methoxy-7-((4-methylpiperazin-1-yl)methyl)pyrano[3,2-c]isochromen-6(10bH)-one]	672 ± 221 pg/mL	398 ± 62 pg/mL	better activity than bergenin (1)	12.1 ± 2.81 ng/mL	21.1 ± 3.2 ng/mL	78 ± 4.9 pg/mL	84 ± 6.7 pg/mL	most potent	most potent	2.87 ± 0.73 µM	1.24 ± 0.25 µM	282 ± 98 ng/mL	58 ± 12 ng/mL	most potent	most potent	6.1 µM	most potent	–
< 0.1 µM	0.63 µM	COc1c(O)cc2c(c1O)[C@@H]1O[C@H](CO)[C@@H](O)[C@H](O)[C@H]1OC2=O [Compound 1, Bergenin, reference compound]	667 ± 208 pg/mL	509 ± 185 pg/mL	–	24.6 ± 6.9 ng/mL	53.5 ± 7.5 ng/mL	89 ± 6.1 pg/mL	78 ± 4.9 pg/mL	–	–	2.62 ± 0.62 µM	3.29 ± 0.88 µM	282 ± 98 ng/mL	55 ± 12 ng/mL	–	–	0.1 µM	–	inhibition of IL-1β production (in words) (IL-1β; listed as Bergenin (1)): showed inhibition; also recorded: most potent; inhibition of IL-6 production (in words) (IL-6 [4]; listed as Bergenin (1)): showed inhibition; also recorded: most potent; inhibition of IL-4 production (in words) (IL-4; listed as Bergenin (1)): showed inhibition; also recorded: most potent; inhibition of T-cell proliferation (in words) (T-cell; listed as Bergenin (1)): showed inhibition; also recorded: most potent; inhibition of TNF-α production (in words) (TNF-α [6]; listed as Bergenin (1)): showed inhibition; also recorded: most potent
< 0.1 µM	< 0.1 µM	CCN(CC)Cc1c(O)c(OC)c(O)c2c1C(=O)OC1C2OC(CO)C(O)C1O (centres unmarked) [Compound 2, 7-((Diethylamino)methyl)-2,3,4,4a-tetrahydro-3,4,8,10-tetrahydroxy-2-(hydroxymethyl)-9-methoxypyrano[3,2-c]isochromen-6(10bH)-one]	585 ± 192 pg/mL	388 ± 115 pg/mL	better activity than bergenin (1)	41.4 ± 8.9 ng/mL	17.3 ± 3.0 ng/mL	102 ± 12^ pg/ml	89 ± 6.4 pg/mL	most potent	most potent	5.0 ± 0.80 µM	3.0 ± 0.73 µM	102 ± 40 ng/mL	275 ± 65 ng/mL	most potent	most potent	< 0.1 µM	most potent	–
